Key:
Assay type in all cases: cell-based
[1] = test system: LX-2 cells; experiment: Cytotoxicity test (Cell Counting Kit-8); details: ASTX up to 25 μM, 24 h (FIG. 1A)
Description: LX-2 cells were incubated with 0-200 μM ASTX for 24 h and its cytotoxicity was measured using a Cell Counting Kit-8 (Dojindo Inc., Rockville, Md.) as previously described (see Yang et al. Food Chem. Toxicol. 2011, vol. 49, pp. 1560-1564). Positive control (0.5 mM SDS) was run in parallel.

[2] = test system: LX-2 cells; experiment: Reactive oxygen species (ROS) measurement in LX-2 cells stimulated with TGFβ1 or tBHP
Description: Cellular ROS levels were measured in LX-2 cells as previously described (see Lee et al. J. Nutr. Biochem. 2013, vol. 25, iss. 4, pp. 404-411). Briefly, LX-2 cells were plated in a black 24-well plate (Wallac Oy, Turku, Finland). When cells reached ˜90% confluency, they were pre-incubated with 5, 10 or 25 μM ASTX for 24 h and subsequently stimulated with 2 ng/mL TGFβ1 or 10 μM tert-butyl hydrogen peroxide (tBHP, Sigma, St. Louis, Mo.) for additional 24 h. cells were then incubated with 5 μM dichlorofluorescein (Sigma, St. Louis, Mo.) for 30 min and fluorescence was read at an excitation wavelength of 485 nm and an emission wavelength of 530 nm. The data were expressed as fluorescent intensity per μg of cell protein.

[3] = test system: α-SMA; experiment: Western blot and immunostaining of α-SMA protein in LX-2 cells; details: 25 μM ASTX (FIGS. 3B, 3C)
Description: LX-2 cells were kindly provided by Dr. Scott Friedman at the Icahn School of Medicine at Mount Sinai (New York, N.Y.). Cells were maintained in low-glucose DMEM containing 2% FBS, 4 mM 1-glutamine, 100 U/mL penicillin and 100 μg/mL streptomycin in a 37° C. humidified cell culture chamber providing 5% CO2. LX-2 cells were incubated with varying concentrations of ASTX for 12 or 24 h, and subsequently activated by 2 ng/mL of TGFβ1 (Peprotech, Rocky Hill, N.J.) for 1 to 24 h. Primary mouse HSCs were plated on untreated petri dishes (BD Falcon, Franklin Lakes, N.J.) and maintained in low-glucose DMEM supplemented with 10% FBS, 4 mM L-glutamine, 100 U/mL penicillin and 100 μg/mL streptomycin in a 37° C. humidified cell culture chamber under 5% CO2. ASTX (25 μM) was added at day 2 or day 4 after plating until day 6 with daily media change. […]
Whole cell lysates were prepared to conduct Western blot as we previously described (Id.) using antibodies against α-SMA (Sigma, St. Louis, Mo.), Smad3 (Millipore, Billerica, Mass.), and phospho-Smad3 (Cell Signaling, Danvers, Mass.). β-Tubulin (Santa Cruz Biotechnology, Santa Cruz, Calif.) or β-actin (Sigma, St. Louis, Mo.) was used as a loading control. […] Blots were developed using Westpico horseradish peroxidase chemiluminescence (Pierce, Rockford, Ill.) and images were analyzed using a Chemidoc XRS+system (Bio-Rad) and Image Lab software (Bio-Rad). […]

[4] = test system: LX-2 cells; experiment: qRT-PCR of LX-2 cells transfected with scramble control or Smad3 siRNA
Description: Total RNA extraction, cDNA synthesis, and qRT-PCR were conducted using a Bio-Rad CFX96 Real-Time system (Bio-Rad, Hercules, Calif.) as previously described (see Park et al. Nutr. Res. 2008, vol. 28, pp. 83-91; Rasmussen et al. J. Nutr. 2008, vol. 138, pp. 476-481). Gene sequences were obtained from the GenBank database and primers were designed using Beacon Designer (Premier Biosoft, Palo Alto, Calif.). Primer sequences are available (see supplemental table of Yang et al. Biochimica et Biophysica Acta 2015, vol. 1850, pp. 178-185).
LX-2 cells were transfected with either Silencer® Negative Control scrambled siRNA (Ambion, Invitrogen, Grand Island, N.Y.) or siGENOME SMARTpool SMAD3 siRNA (siGenome, Thermo Scientific, Logan, Utah) as described previously (see Angulo N. Engl. J. Med. 2002, vol. 346, pp. 1221-1231). Twenty four hours after the transfection, cells were pretreated with 25 μM ASTX for 12 h, after which they were stimulated by 2 ng/mL TGFβ1 for additional 12 h for subsequent qRT-PCR analysis.

## CC1=C(/C=C/C(C)=C/C=C/C(C)=C/C=C/C=C(C)/C=C/C=C(C)/C=C/C2=C(C)C(=O)C(O)CC2(C)C)C(C)(C)CC(O)C1=O (centres unmarked) [ASTX, astaxanthin]
[1]
  cell viability: more than 90%
[2]; 25 μM ASTX, 2 ng/mL TGFβ1
  increase in cellular ROS levels induced by TGFβ1: completely abolished
[2]; 25 μM ASTX, 10 μM tBHP
  increase in cellular ROS levels induced by tBHP: completely abolished
[2]; LX-2 cells pretreated with 5, 10 or 25 μM ASTX 24 h (FIGS. 1B, 1C)
  cellular ROS levels increased by TGFβ1 and tBHP: decreased
[3]
  protein levels of α-SMA induced by TGFβ1: significantly decreased
[4]; LX-2 cells transfected with scrambled control, 25 μM ASTX 12 h (FIG. 4)
  induction of fibrogenic genes by TGFβ1: attenuated
[4]; Smad3-deficient (siRNA) LX-2 cells
  expression of α-SMA: minimal inhibitory effect
[4]; regardless of Smad3
  increase in TGFβ1 mRNA by TGFβ1 itself: inhibited
